# Source: the supplement of paper PMC10307832
# Compound: O=C(O)C(Cc1ccccc1[N+](=O)[O-])=NNc1nc(-c2ccc(Cl)c(Cl)c2)cs1 (mixture of isomers) [4EGI-1] + CC(C)C[C@H](NC(=O)[C@H](Cc1ccccc1)NC(=O)c1cnccn1)B(O)O [Bortezomib] (partner 0.002 µM)
# Test: relative viability (nuclei count vs DMSO), 5 days (fraction); higher = more cells survive
# Conditions: first compound 0.5 µM
# Outline: (§1)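 Nuclei were stained with Hoechst during a one-step fixation (final 0.05% Triton X-100, 1% formaldehyde, 1 ug/ml Hoechst) carried out 5 days after dosing, then counted on 4× images. The cells, lung cancer lines in 1536-well plates, had been dosed by pin tool the day after seeding with one drug alone or a fixed anchor-drug dose plus five library-drug doses (not always all listed) in √10 steps. Relative viability is the nuclei count in treated wells divided by that in vehicle wells, and each value is the median of duplicate plates.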
row,Cell Line,relative viability
1,201T,1.15
2,A-427,0.984
3,ABC-1,0.344
4,BEN,0.848
5,COR-L23,0.983
6,COR-L 105,0.876
7,Calu-6,0.982
8,ChaGo-K-1,0.995
9,EBC-1,0.668
10,EKVX,1.09
11,EMC-BAC-2,1.17
12,EPLC-272H,1.01
13,H3255,0.843
14,HARA,1.16
15,HCC-15,1.09
16,HCC-44,0.924
17,HCC-78,0.618
18,HCC-366,1.12
19,HCC-827,0.991
20,HOP-62,1.32
21,IA-LM,0.873
22,LC-2-ad,1.17
23,LCLC-97TM1,0.589
24,LCLC-103H,1.03
25,NCI-H727,0.985
26,NCI-H1299,1.02
27,NCI-H1563,0.895
28,NCI-H1703,0.403

# Same assay, conditions: first compound 1.581 µM
row,Cell Line,relative viability
1,201T,1.05
2,A-427,0.795
3,ABC-1,0.291
4,BEN,1.22
5,COR-L23,0.651
6,COR-L 105,0.592
7,Calu-6,0.877
8,EBC-1,0.547
9,EKVX,0.965
10,EMC-BAC-2,1.02
11,EPLC-272H,0.686
12,H3255,0.663
13,HARA,1.12
14,HCC-15,1.12
15,HCC-44,0.637
16,HCC-78,0.466
17,HCC-366,0.841
18,HCC-827,0.853
19,IA-LM,0.707
20,LC-2-ad,0.877
21,LCLC-103H,0.964
22,NCI-H727,0.874
23,NCI-H1299,1.04
24,NCI-H1563,0.728
25,NCI-H1703,0.363

# Same assay, conditions: first compound 5 µM
row,Cell Line,relative viability
1,201T,1.08
2,A-427,0.911
3,ABC-1,0.319
4,BEN,0.903
5,CAL-12T,1.1
6,COR-L23,1.09
7,COR-L 105,0.725
8,Calu-6,1.15
9,ChaGo-K-1,0.954
10,EBC-1,0.704
11,EKVX,1.06
12,EMC-BAC-2,1.13
13,EPLC-272H,0.898
14,H3255,0.796
15,HARA,1.26
16,HCC-15,1.06
17,HCC-44,0.877
18,HCC-78,0.513
19,HCC-366,1.04
20,HCC-827,1.02
21,HOP-62,1.03
22,IA-LM,0.552
23,LC-2-ad,0.944
24,LCLC-97TM1,0.942
25,LCLC-103H,0.98
26,NCI-H727,0.652
27,NCI-H1299,0.993
28,NCI-H1563,0.847
29,NCI-H1703,0.446

# Same assay, conditions: first compound 15.81 µM
row,Cell Line,relative viability
1,201T,1.09
2,A-427,0.832
3,ABC-1,0.285
4,BEN,0.754
5,CAL-12T,0.951
6,COR-L23,0.808
7,COR-L 105,0.424
8,Calu-6,0.989
9,ChaGo-K-1,0.659
10,EBC-1,0.52
11,EKVX,1.04
12,EMC-BAC-2,1.05
13,EPLC-272H,0.618
14,H3255,0.576
15,HARA,1.08
16,HCC-15,0.951
17,HCC-44,0.753
18,HCC-78,0.432
19,HCC-366,1.09
20,HCC-827,0.267
21,HOP-62,1.06
22,IA-LM,0.144
23,LC-2-ad,0.444
24,LCLC-97TM1,0.271
25,LCLC-103H,0.955
26,NCI-H727,0.722
27,NCI-H1299,0.997
28,NCI-H1563,0.818
29,NCI-H1703,0.365

# Same assay, conditions: first compound 50 µM
row,Cell Line,relative viability
1,201T,1.03
2,A-427,0.625
3,ABC-1,0.214
4,BEN,0.604
5,CAL-12T,0.403
6,COR-L23,0.19
7,COR-L 105,0.252
8,Calu-6,0.33
9,ChaGo-K-1,0.434
10,EBC-1,0.181
11,EKVX,1.04
12,EMC-BAC-2,0.88
13,EPLC-272H,0.497
14,H3255,0.48
15,HARA,0.154
16,HCC-15,0.801
17,HCC-44,0.235
18,HCC-78,0.399
19,HCC-366,0.19
20,HCC-827,0.519
21,HOP-62,0.45
22,IA-LM,0.0723
23,LC-2-ad,0.352
24,LCLC-97TM1,0.277
25,LCLC-103H,0.959
26,NCI-H727,0.442
27,NCI-H1299,1.02
28,NCI-H1563,0.468
29,NCI-H1703,0.201

# Compound: O=C(O)C(Cc1ccccc1[N+](=O)[O-])=NNc1nc(-c2ccc(Cl)c(Cl)c2)cs1 (mixture of isomers) [4EGI-1] + Cc1nc(Nc2ncc(C(=O)Nc3c(C)cccc3Cl)s2)cc(N2CCN(CCO)CC2)n1 [Dasatinib] (partner 0.075 µM)
# Test: as above
# Conditions: first compound 0.5 µM
# Outline: as §1
row,Cell Line,relative viability
1,201T,0.574
2,A-427,0.797
3,ABC-1,0.585
4,BEN,0.328
5,CAL-12T,0.504
6,COR-L23,0.578
7,COR-L 105,0.357
8,ChaGo-K-1,0.661
9,EKVX,0.529
10,EMC-BAC-2,0.369
11,EPLC-272H,0.504
12,H3255,0.361
13,HARA,0.273
14,HCC-15,0.642
15,HCC-78,0.41
16,HCC-366,0.772
17,HCC-827,0.346

row,Cell Line,relative viability
1,HOP-62,0.796
2,LC-2-ad,0.697
3,LCLC-97TM1,0.733
4,LCLC-103H,0.531
5,LK-2,0.253
6,NCI-H358,0.151
7,NCI-H522,1.02
8,NCI-H727,0.323
9,NCI-H1395,0.423
10,NCI-H1563,0.441
11,NCI-H1623,0.507
12,NCI-H1793,0.349
13,NCI-H1944,0.22
14,NCI-H2170,0.676
15,NCI-H2342,0.299
16,SK-MES-1,0.479
17,SW 900,0.641

# Same assay, conditions: first compound 1.581 µM
row,Cell Line,relative viability
1,201T,0.551
2,A-427,0.513
3,ABC-1,0.501
4,BEN,0.302
5,CAL-12T,0.206
6,COR-L23,0.207
7,COR-L 105,0.335
8,ChaGo-K-1,0.629
9,EKVX,0.641
10,EMC-BAC-2,0.298
11,H3255,0.321
12,HARA,0.319
13,HCC-366,0.587
14,HCC-827,0.246
15,HOP-62,0.587
16,LCLC-97TM1,0.708
17,LCLC-103H,0.503
18,NCI-H358,0.16
19,NCI-H522,0.735
20,NCI-H727,0.436
21,NCI-H1395,0.471
22,NCI-H1563,0.435
23,NCI-H1623,0.446
24,NCI-H1793,0.364
25,NCI-H2170,0.504
26,NCI-H2342,0.3
27,SK-MES-1,0.312

# Same assay, conditions: first compound 5 µM
row,Cell Line,relative viability
1,201T,0.581
2,A-427,0.527
3,ABC-1,0.586
4,BEN,0.329
5,CAL-12T,0.449
6,COR-L23,0.483
7,COR-L 105,0.326
8,ChaGo-K-1,0.639
9,EKVX,0.443
10,EMC-BAC-2,0.361
11,EPLC-272H,0.34
12,H3255,0.412
13,HARA,0.283
14,HCC-15,0.612
15,HCC-78,0.383
16,HCC-366,0.629
17,HCC-827,0.345

row,Cell Line,relative viability
1,HOP-62,0.668
2,LC-2-ad,0.651
3,LCLC-97TM1,0.873
4,LCLC-103H,0.503
5,LK-2,0.309
6,NCI-H358,0.183
7,NCI-H522,0.858
8,NCI-H727,0.344
9,NCI-H1395,0.436
10,NCI-H1563,0.441
11,NCI-H1623,0.575
12,NCI-H1793,0.38
13,NCI-H1944,0.199
14,NCI-H2170,0.628
15,NCI-H2342,0.292
16,SK-MES-1,0.34
17,SW 900,0.528

# Same assay, conditions: first compound 15.81 µM
row,Cell Line,relative viability
1,201T,0.568
2,A-427,0.46
3,ABC-1,0.38
4,BEN,0.282
5,CAL-12T,0.297
6,COR-L23,0.307
7,COR-L 105,0.235
8,ChaGo-K-1,0.48
9,EKVX,0.298
10,EMC-BAC-2,0.362
11,EPLC-272H,0.252
12,H3255,0.324
13,HARA,0.206
14,HCC-15,0.511
15,HCC-78,0.34
16,HCC-366,0.67
17,HCC-827,0.127

row,Cell Line,relative viability
1,HOP-62,0.568
2,LC-2-ad,0.199
3,LCLC-97TM1,0.878
4,LCLC-103H,0.523
5,LK-2,0.254
6,NCI-H358,0.139
7,NCI-H522,0.893
8,NCI-H727,0.272
9,NCI-H1395,0.442
10,NCI-H1563,0.494
11,NCI-H1623,0.437
12,NCI-H1793,0.374
13,NCI-H1944,0.172
14,NCI-H2170,0.473
15,NCI-H2342,0.292
16,SK-MES-1,0.356
17,SW 900,0.487

# Same assay, conditions: first compound 50 µM
row,Cell Line,relative viability
1,201T,0.318
2,A-427,0.159
3,ABC-1,0.192
4,BEN,0.233
5,CAL-12T,0.0969
6,COR-L23,0.141
7,COR-L 105,0.248
8,ChaGo-K-1,0.25
9,EKVX,0.19
10,EMC-BAC-2,0.296
11,EPLC-272H,0.138
12,H3255,0.322
13,HARA,0.218
14,HCC-15,0.308
15,HCC-78,0.357
16,HCC-366,0.308
17,HCC-827,0.261

row,Cell Line,relative viability
1,HOP-62,0.473
2,LC-2-ad,0.161
3,LCLC-97TM1,0.739
4,LCLC-103H,0.236
5,LK-2,0.134
6,NCI-H358,0.0975
7,NCI-H522,0.556
8,NCI-H727,0.23
9,NCI-H1395,0.32
10,NCI-H1563,0.424
11,NCI-H1623,0.414
12,NCI-H1793,0.347
13,NCI-H1944,0.135
14,NCI-H2170,0.173
15,NCI-H2342,0.257
16,SK-MES-1,0.198
17,SW 900,0.547

# Compound: O=C(O)C(Cc1ccccc1[N+](=O)[O-])=NNc1nc(-c2ccc(Cl)c(Cl)c2)cs1 (mixture of isomers) [4EGI-1] + O=C(CCCCCCC(=O)Nc1ccccc1)NO [Vorinostat] (partner 1 µM)
# Test: as above
# Conditions: first compound 0.5 µM
# Outline: as §1
row,Cell Line,relative viability
1,201T,1.11
2,A-427,0.865
3,ABC-1,1.16
4,BEN,0.63
5,CAL-12T,0.964
6,COR-L23,0.672
7,COR-L 105,0.823
8,ChaGo-K-1,0.779
9,EKVX,0.852
10,EMC-BAC-2,0.472
